According to US20130303562A1, “CHEMICAL AND RNAI SUPPRESSORS OF NEUROTOXICITY IN HUNTINGTON'S DISEASE” (priority 2010, published 2013):
Entries after “also recorded” stand apart in the source; their conditions may differ. Where two headings read alike, the source gives them in different places.

How the values were obtained:
[1] = system: HD larvae (Elav^c155-GAL4; UAS-Htt-Q138/+); experiment: In vivo rescue: viability of HD larvae after 5-day drug dosing in liquid culture; design: species or system Drosophila; settings: larvae reared in liquid culture, 5-day dosing, compared to DMSO-treated controls
Procedure: In vivo Rescue studies: For small molecule in vivo rescue studies, Elav^c155; UAS-Htt-Q138-mRFP^1, UAS-mCD8-GFP/+1st instar larvae were collected en-masse and dispensed into liquid yeast media (10 larvae/well) containing therapeutic agents at three different concentrations as described in the results (n=8 replicas/concentration). Cultures were reared at 21° C. and larval viability was assessed after 5 days and the mean number of living Htt138Q larvae (i.e. GFP^+, Htt138QmRFP^+, and mobile) was tabulated, and expressed as a percentage of total larvae/well. For genetic rescue studies with lkb1, two Htt138Q strains were utilized: a strong expressing line, UAS-Htt138QmRFP^1 which is pharate lethal when crossed to Elav^c155, and a weaker expressing line, UAS-Htt138QmRFP^2 which survives to adulthood and is viable for a number of weeks. Using the strong line, pharate lethality at 25° C. was calculated after lkb1 (lkb1^4B1-11 and lkb1^4A4-2 alleles) was introduced into an Elav^c155, UAS-Htt/+background. Lkb1^4B1-11 is a premature truncation allele (Q98>Stop), and lkb1^4A4-2 is an EMS null allele (589 b.p. deletion removing 150 b.p. of the 5′ UTR, the start codon and the beginning of the open reading frame). For Top1 in vivo analysis, Elav^c155, Top^112 recombinants were generated and crossed to UAS-Htt138QmRFP^1.
To further examine the RNAi/small molecule screen hits, we assayed in vivo efficacy by testing their ability to rescue lethality in our Drosophila HD model. […] Specific inhibitors of Lkb1 were not available for in vivo testing.

[2] = system: Htt138Q aggregate formation; experiment: Htt-Q138 aggregation-inhibition screening of small molecules in Drosophila primary neural cultures (automated microscopy); format: cell-based; settings: for Htt-Q138 aggregate formation (effect in words): range of concentrations (56 μM, 5.6 μM); for Htt-Q138 aggregation (effect in words): Htt-Q138 primary neural cultures
Procedure: Primary Cell Culture. Elav^c155-GAL4 virgins were collected en-masse and crossed to either UAS-Htt-Q138-mRFP^1, UAS-mCD8-GFP or UAS-HttQ15-mRFP^1, UAS-mCD8-GFP males to generate embryos for primary culture preparation. Neuroblasts were isolated as described (Sepp et al., 2008).
Compound screening: Primary cultures were re-suspended directly in Shields and Sang M3 media (Sigma) supplemented with 10 U/mL penicillin, 10 μg/mL streptomycin, 200 ng/mL insulin, and 5% fetal bovine serum. […] of compounds from arrayed small-molecule libraries (NINDS Custom Collection 2, Prestwick) Collection, BIOMOL2 ICCB-Longwood Known Bioactives High Concentration, various concentration from 1-15 mM in DMSO) were applied to 50 μL of cultures 24 hours after plating on optical bottom 384-well plates (Corning 3712). The neuroblast density was 18,500 cells/well. The primary screen was carried out in duplicate and hits were validated with 12 additional replicate wells.
(§1) Microscopy: For high-content screening mature 7-day old cultures were imaged with an ImageXpress^MICRO robotic microscope (Molecular Devices, Sunnyvale, Calif.) using a 10× objective and FITC/Cy3 filter sets. Images were 1392×1040 pixels, or 897×670 micrometers. Laser-based autofocusing was used to locate plate bottoms, and then image-based focusing used to resolve fluorescently labeled neurons over a 48 μm range. The GFP and mRFP channels were imaged in the same focal plane, with exposure times of 850 and 400 ms respectively. Three sites were imaged per well for each treatment group, and the screen was done in duplicate. For confocal microscopy of primary cultures, neuroblasts were plated on poly-L-lysine coated chambered cover slips (LabTekII, 0.8 cm^2/well) at 18,300 cells/well in 50 μL volume. Small molecules were added to cultures 24 hours after plating, incubated for 7 days, and then imaged with a Leica TCS-SP2 confocal LSM microscope.
(§2) Digital Image Analysis of High Content Screening Data Sets: Neuronal morphological analysis and Htt aggregate quantification for automated microscopy images was performed as previously described (Schulte et al., Wu et al.). In brief, Htt-Q138 aggregates were quantified as the total number of pixels/image with an intensity higher than an empirically set threshold. Statistical analysis was conducted using a two sample t-test. To quantify neuronal morphologies, cell body clusters (neuromeres) and neurites were extracted from images using our custom algorithms (Wu et al.). […] Absolute counts of neuromeres/bin were tabulated for all images. Neurite segment lengths were similarly clustered into three groups (short, medium, and long) using the K-means method and then quantified. Cell cluster and neurite counts were converted into percentages to control for any variation in cell number between wells arising from pipetting error. Mean neuromere area and neurite length for each image were also calculated to give a total of eight morphological metrics for image morphology quantification. For statistical analysis, p-values for each morphological feature were calculated using a two sample t-test (e.g. small neuromere feature of Htt-Q138 drug-treated cultures versus small neuromere feature of Htt-Q15 DMSO cultures). The resultant morphological p-values for individual features were then integrated into a single p-value using the Fisher method (Fisher 1932) defined by the equation χ^2=−2Σi=1^k loge(pi), where k represents independent tests, pi is the p-value of the i-th feature. The combined statistic has a χ^2 distribution with 2k degrees of freedom under the joint null hypothesis. This method works well in cases where the evidence against the null-hypothesis is spread across different features. Excluded from analysis were compound-treated wells with <6 images, out-of-focus images, or images that lacked cell profiles altogether.

[3] = system: Htt-Q138 expressing primary neural cultures; experiment: In vitro validation of screen hits by confocal microscopy of primary cultures on glass coverslips; format: cell-based, Drosophila; settings: for Aggregate formation (confocal): 56 μM, Htt-Q138 expressing cultures
Source text: FIG. 4. In vitro validation of small molecule screen hits. Confocal microscopy images of primary cultures plated on glass coverslips and treated with either DMSO (A,B) or test compounds (C,D). […] HttQ15 is soluble and fills most neurite processes. […] (E) Quantification of altered Htt138Q distribution following Camptothecin treatment.
as §1

[4] = system: Htt-Q138 expressing Drosophila primary neural cultures; experiment: Morphological analysis of small-molecule treated Htt-Q138 primary neural cultures versus Htt-Q15 controls; format: cell-based; settings: for Morphology profiles of Q138 expressing neurons (effect in words): Htt-Q138 primary neural cultures, compared with Htt-Q15 controls
Procedure: Primary Cell Culture. Elav^c155-GAL4 virgins were collected en-masse and crossed to either UAS-Htt-Q138-mRFP^1, UAS-mCD8-GFP or UAS-HttQ15-mRFP^1, UAS-mCD8-GFP males to generate embryos for primary culture preparation.
Compound screening: Primary cultures were re-suspended directly in Shields and Sang M3 media (Sigma) supplemented with 10 U/mL penicillin, 10 μg/mL streptomycin, 200 ng/mL insulin, and 5% fetal bovine serum. […] The neuroblast density was 18,500 cells/well. The primary screen was carried out in duplicate and hits were validated with 12 additional replicate wells.
as §1, with “Images were 1392×1040 pixels, or 897×670 micrometers.” left out
as §2, with “The resultant morphological p-values for individual features were then integrated into a single p-value using the Fisher method (Fisher 1932) defined by the equation χ^2=−2Σi=1^k loge(pi), where k represents independent tests, pi is the p-value of the i-th feature.” left out

PC12 cells = settings: cited from earlier work
gap junction = settings: cited from earlier work
[5] = Solubility / precipitation in cultures; format: physicochemical; settings: liquid cultures
NP-3 mouse HD model = settings: cited from earlier work

In the case of `CCC1(O)C(=O)OCc2c1cc1n(c2=O)Cc2cc3cc(O)ccc3nc2-1` (centres unmarked) [10-OH-Camptothecin], the “Viability of Htt-Q138 expressing larvae / rescue of Htt-Q138 lethality” value ([1]; listed as 10-Hydroxycamptothecin) is reported as “increased larval longevity in vivo, but to a lesser extent than Rapamycin; also recorded: more efficacious than Camptothecin”, the “Htt-Q138 aggregate formation (effect in words)” value [2] is reported as “rescue aggregate formation” and the “Aggregate formation (confocal)” value [3] is reported as “reduces aggregate formation”. The “Dystrophic morphology profiles (effect in words)” value [4] was “partially reverting dystrophic morphology profiles” and the “Morphology profiles of Q138 expressing neurons (effect in words)” value [4] was “Rescue of Htt-Q138 mutant morphology”.

For `CC1(C)[C@@H](O)CC[C@]2(C)[C@H]3C(=O)C=C4[C@@H]5C[C@@](C)(C(=O)O)CC[C@]5(C)CC[C@@]4(C)[C@]3(C)CC[C@@H]12` [18β-Glycyrrhetinic acid], the “Viability of Htt-Q138 expressing larvae / rescue of Htt-Q138 lethality” value [1] is listed as “rescue HD toxicity in vivo”, the “Viability of Htt-Q138 expressing larvae / rescue of Htt-Q138 lethality” value ([1]; listed as 180-Glycyrrhetinic acid) is listed as “almost as efficacious as Rapamycin” and the “Neurotoxicity in PC12 cellular stress model” value (PC12 cells) is listed as “suppresses neurotoxicity”. The Gap junction activity (gap junction) was “block gap junction activity”.

For `O=C(Nc1ccc(Br)cc1)c1cccc(S(=O)(=O)Nc2ccc(Br)cc2)c1` [C2-8], the “Htt-Q138 aggregation (effect in words)” value [2] was “reduced Htt-Q138 aggregation”, the “Neurotoxic properties / morphological defects in cultures” value [4] was “reduced axon outgrowth, neuromere size, and suppressed GFP expression” and the “Morphology profiles of Q138 expressing neurons (effect in words)” value [4] was “none reverted the morphology profiles of Q138 expressing neurons towards normal”.

With `CC[C@@]1(O)C(=O)OCc2c1cc1n(c2=O)Cc2cc3ccccc3nc2-1` [Camptothecin] the “Viability of Htt-Q138 expressing larvae / rescue of Htt-Q138 lethality” value [1] was “increased larval longevity in vivo, but to a lesser extent than Rapamycin”, the “Htt-Q138 aggregate formation (effect in words)” value [2] was “rescue aggregate formation” and the “Aggregate formation (confocal)” value [3] was “reduces aggregate formation”. The “Number of Htt138Q pixels/neuronal area (Htt-RFP pixels/neuromere and neurite GFP pixels)” value ([3]; mutant cultures, p<0.05, n=4) was “increase”, the “Precipitation when added to cultures” value [5] was “readily precipitates when added to cultures” and the “Neurotoxic properties / morphological defects in cultures” value ([4]; primary neural cultures) was “did not observe morphological defects”. The “Dystrophic morphology profiles (effect in words)” value ([4]; range of concentrations (56 μM, 5.6 μM)) was “partially reverting dystrophic morphology profiles”.

In the case of `O=C1Nc2ccc(I)cc2/C1=C/c1cc(Br)c(O)c(Br)c1` [GW5074], the Striatal degeneration (NP-3 mouse HD model) is listed as “reduced striatal degeneration”, the “Htt-Q138 aggregation (effect in words)” value [2] is listed as “reduced Htt-Q138 aggregation; also recorded: inhibited mutant Hu aggregate formation” and the “Neurotoxic properties / morphological defects in cultures” value [4] is listed as “reduced axon outgrowth, neuromere size, and suppressed GFP expression”. For the same molecule, the “Morphology profiles of Q138 expressing neurons (effect in words)” value [4] was “none reverted the morphology profiles of Q138 expressing neurons towards normal”.

In the case of `C=C1[C@@H](O)[C@@H]2O[C@]3(CC[C@H](/C=C/[C@@H](C)[C@@H]4CC(C)=C[C@@]5(O[C@H](C[C@@](C)(O)C(=O)O)CC[C@H]5O)O4)O3)CC[C@H]2O[C@@H]1[C@@H](O)C[C@H](C)[C@H]1O[C@@]2(CCCCO2)CC[C@H]1C` [Okadaic acid], the “Htt-Q138 aggregation (effect in words)” value [2] is reported as “suppress Htt-Q138 aggregation” and the “Morphology profiles of Q138 expressing neurons (effect in words)” value [4] is reported as “exacerbated the mutant Htt-Q138 mutant morphology”.

With `C[C@@H]1C[C@H]2O[C@@H]2/C=C\C=C\C(=O)Cc2c(Cl)c(O)cc(O)c2C(=O)O1` [Radicicol] the “Htt-Q138 aggregation (effect in words)” value [2] was “reduced Htt-Q138 aggregation”, the “Neurotoxic properties / morphological defects in cultures” value [4] was “reduced axon outgrowth, neuromere size, and suppressed GFP expression” and the “Morphology profiles of Q138 expressing neurons (effect in words)” value [4] was “none reverted the morphology profiles of Q138 expressing neurons towards normal”.

In the case of `CO[C@H]1C[C@@H]2CC[C@@H](C)[C@@](O)(O2)C(=O)C(=O)N2CCCC[C@H]2C(=O)O[C@H]([C@H](C)C[C@@H]2CC[C@@H](O)[C@H](OC)C2)CC(=O)[C@H](C)/C=C(\C)[C@@H](O)[C@@H](OC)C(=O)[C@H](C)C[C@H](C)/C=C/C=C/C=C/1C` [Rapamycin], the “Neurotoxic properties / morphological defects in cultures” value ([4]; primary neural cultures) is reported as “reduced axon outgrowth, neuromere size, and suppressed GFP expression”.
